For this assay, the system named is SlitOR5. Description: Single-sensillum recordings on Drosophila at1 olfactory neurons expressing SlitOR5. The format is cell-based, Spodoptera littoralis. The following applies: for significance of response versus solvent alone: n=7, Kruskal-Wallis ANOVA with Dunn's post-hoc test. As for the experimental part: SlitOR5 can be heterologously expressed in vivo in an organism, for example Drosophila melanogaster, using transgenesis (e.g. the Gal4-UAS system in D. melanogaster). SlitOR5 can be expressed in a large part of the endogenous olfactory sensory neurons (OSNs) of the organism (for instance using the ORco promotor) or in a given subset of the OSN population. The modified responses of the antenna or of the targeted OSNs are then recorded using, respectively, electroantennography (EAG) and single sensillum recording (SSR). Some D. melanogaster mutant lines may be used to replace a native Drosophila OR with SlitOR5, such as the ab3A mutant line which allows for expression of SlitOR5 in ORNs usually expressing DmelOR22a (Hallem et al., Cell 2004, 117(7):965-979), and the DmelOr67dGAL4 mutant knock-in line, which allows for expression of SlitOR5 in place of DmelOR67d, in the unique OSN of the atl Drosophila sensilla (Kurtovic et al. Nature 2007, 446(7135):542-546). The candidate agent activity is measured as the antenna depolarization (EAG) or the number of action potential (SSR) generated by stimulation of an air flow containing the candidate agent (typically from 0.1 μg to 100 μg of the candidate agent loaded in the stimulation cartridge). Depolarization and action potential number are compared, respectively, to depolarization and action potential number generated by the agent solvent alone.
The transformant UAS-SlitOR5 balanced fly line was generated by BestGene Inc. (Chino Hills, Calif., USA), using the PhiC31 integrase system. Briefly, recombinant pUAST.attB-SlitOR5 plasmids were injected into embryos of a D. melanogaster line containing an attP insertion site within the second chromosome (genotype y1 M{vas-int.Dm}ZH-2A w*; M{3×P3-RFP.attP′}ZH-51C), leading to non-random integration. To drive expression of SlitOR5 in neurons housed in atl sensilla, the transformant UAS-SlitOR5 line was crossed to a line carrying the mutant knock-in allele Or67d^GAL4 (kindly provided by Dr. Barry Dickson, IMP, Vienna, Austria) to generate a double homozygous line w;UAS-SlitOr5;Or67d^GAL4. Flies were reared on standard cornmeal-yeast-agar medium and kept in a climate- and light-controlled environment (25° C., 12:12 light:dark cycle). The presence of the UAS-SlitO5 transgene was verified by PCR on genomic DNA extracted from two flies, and the expression of SlitOR5 in fly antennae was verified by RT-PCR on total RNA extracted from >100 pairs of antennae.
The response spectrum of SlitOR5 was tested by means of single-sensillum recordings on flies expressing the SlitOR5 transgene in atl neurons, instead of the endogenous receptor DmelOR67d. Two- to 10-day-old male flies were restrained in a plastic pipette tip with only the head protruding from the narrow end. The pipette tip was fixed with dental wax on a microscope glass slide with the ventral side of the fly facing upward. Then, the antenna was gently placed on a piece of glass slide and maintained by placing a glass capillary between the 2nd and 3rd antennal segments. Afterwards, the slides were placed under a light microscope (BX51WI, Olympus, Tokyo, Japan) equipped with a 100× magnification objective. Desiccation of the flies was avoided thanks to a constant 1.5 L·min^−1 flux of charcoal-filtered and humidified air, delivered through a glass tube of a 7 mm diameter, which terminated ca. 1.5 cm from the antenna.
Stimulation cartridges were built by placing a 1 cm^2 filter paper in the large opening end of a Pasteur pipette and dropping 10 μl of an odorant solution onto the paper before closing the pipette with a 1 mL plastic pipette tip. A screening panel of 26 pheromone compounds (see Table 1 for detail) were used at a 1 μg/μl dilution in hexane (10 μg deposited on the filter paper). Pipettes with filter papers containing 10 μL of solvent were used as controls. […]

The mark [1] stands for this setting: response spectrum screen, 10 μg loaded in the stimulus cartridge.

As for `CC/C=C/C=C\CCCCCCCCOC(C)=O` [Z9,E11-14:OAc, (Z,E)-9,11-tetradecadienyl acetate], the “response of at1 neurons (firing rate), dose-response” value turned out to be 15 spikes·s^−1 (dose 1 μg loaded on the stimulus cartridge, n=5) and 43 spikes·s^−1 (dose 10 μg loaded on the stimulus cartridge, n=5). The “mean net response (firing rate) of SlitOR5-expressing neurons” value (response spectrum screen, 10 μg loaded in the stimulus cartridge, 500 ms air pulse, n=7, w;UAS-SlitOr5;Or67d^GAL4 flies) stood at 75 spikes·s^−1. Under setting [1], the “significance of response versus solvent alone” value is listed as “significant response”. The “response of at1 neurons versus solvent alone, dose-response” value (the two lower doses (dose range 0.01 μg to 10 μg), n=5) was “did not significantly differ”.

For the compound `CC/C=C\C=C/CCCCCCCCOC(C)=O` [Z9,Z11-14:OAc, (Z,Z)-9,11-tetradecadienyl acetate], under setting [1], the “significance of response versus solvent alone” value is reported as “not significant”.

For `CC/C=C\CCCCCCCCOC(C)=O` [Z9-12:OAc, (Z)-9-dodecenyl acetate], under setting [1], the “significance of response versus solvent alone” value is reported as “not significant”.

Regarding `CCCC/C=C\CCCCCCCCOC(C)=O` [Z9-14:OAc, (Z)-9-tetradecenyl acetate], the “significance of response versus solvent alone” value under setting [1] was “not significant”.

These data come from US20190169669A1, “[…] OF […] IDENTIFICATION OF NATURAL LIGAND OF SAID RECEPTOR AND USES THEREOF” (Institut National de la Recherche Agronomique, priority 2016, published 2019).
